Data from PMC6986439, “Sultiame pharmacokinetic profile in plasma and erythrocytes after single oral doses: A pilot study in healthy volunteers” (Pharmacology Research & Perspectives, 2020).
Like-named read-outs stand apart in the source and are kept apart here.

Assay: Noncompartmental pharmacokinetics after single oral doses in healthy volunteers
Assay type: in vivo, human
Conditions: for half-life / Cmax / AUC / Tmax / CL renal: male, human; for AUC: read-out: AUC(0‐inf); for Tmax: read-out: Median tmax (range); for CL renal / Recovery unchanged: urine; for CL renal: read-out: Renal clearance (converted)
Source text: Eligible subjects for the clinical study were healthy adult male volunteers aged 18‐45 years, with a body weight ranging between 55 and 95 kg and a body mass index of 18‐29 kg/m^2. Subjects with a history or evidence of clinically significant diseases or interfering conditions were excluded. Other exclusion criteria included: history of any clinically significant laboratory value including serology for hepatitis and HIV, relevant alcohol or drug abuse, recent acute illness, or use of any medication the week prior to study.
Single oral doses of 50, 100, and 200 mg of sultiame (Ospolot®, immediate‐release coated tablets) were administered in fasting conditions, in open‐label, during periods 1, 2, and 3, respectively, at 4‐6 weeks interval. On each period, serial plasma and whole blood samples were collected predose, then at 15, 30 min, 1, 2, 3, 4, 5, 6, 8, 10, 24, 48, 72 168, 336, and 504 hours postdose. Plasma and whole blood samples were stored at − 80°C until analysis. Hematocrit was measured using a microhematocrit centrifuge machine (Haematokrit 200®, Hettich AG, Bäch, Switzerland) on each occasion to calculate intraerythrocytic concentrations. Urine PK samples were collected in 6 fractions, before dosing, from 0‐2, 2‐4, 4‐8, 8‐10, and 10‐24 hours postdose. Urine pH was measured on each fraction.
The quantification of sultiame in whole blood, plasma, and urine was performed using a high‐performance liquid chromatography coupled to tandem triple quadrupole mass spectrometry (LC‐MS/MS) method developed and validated purposely for the trial. Briefly, 300 µL of methanol (MeOH) containing the internal standard (IS) sultiame‐D4 (Toronto Research Chemicals, Canada) was added to 100 µL of human plasma, hemolyzed whole blood, or hemolyzed red blood cells, for protein precipitation. Urine samples were processed similarly. After vortex, sonication for 30 seconds, and centrifugation steps, 250 µL of supernatant was transferred into a glass vial with insert, followed by dilution with 250 µL of pure water and a final vortex step, prior to LC‐MS/MS analysis. Chromatographic analyses were carried out on a XSelect HSS T3 column (Waters, Milford, MA, USA) using a water‐acetonitrile gradient over 5 minutes. Detection was performed with a triple quadrupole mass spectrometer (TSQ Quantum Ultra, ThermoFisher Scientific, Waltham, MA, USA) using the m/z transitions 289.0 → 225.1 for sultiame, and 293.0 → 229.1 for sultiame‐D4. Lower limits of detection and quantification of the method were 0.001 and 0.01 µg/mL, respectively, with a dynamic range extending up to 50 µg/mL. […] Deviations from nominal concentration (inaccuracy) of internal QCs were comprised within − 1.9 to + 11.7% over the calibration range. […] Metabolites, whose chemical structure is still elusive, were not determined.
Erythrocytic concentrations (Cery) were deduced from whole blood and plasma measurements as: Cery=Cwhole blood-Cplasma·1-Ht/Ht
Plasma, whole blood, and urine sultiame PK parameters were first computed for each volunteer using standard noncompartmental calculations with Stata® (version 13, StataCorp. 2013, Stata Statistical Software, College Station TX, USA).
The area under the curve for a single dose (AUC0‐inf) was calculated using the log trapezoidal rule with extrapolation to infinity. The terminal rate constant ( λz ) was derived from a two‐exponential model curve. CL/F was calculated as the dose divided by AUC0‐inf, the half‐life (t1/2) as ln(2)/ λz , and V/F as (CL/F)/ λz .

[1] = plasma, single oral dose 50 mg, n = 4, geometric mean (CV%)
[2] = plasma, single oral dose 100 mg, n = 4, geometric mean (CV%)
[3] = plasma, single oral dose 200 mg, n = 4, geometric mean (CV%)
[4] = single oral dose 50 mg, n = 4, geometric mean (CV%)
[5] = single oral dose 100 mg, n = 4, geometric mean (CV%)
[6] = single oral dose 200 mg, n = 4, geometric mean (CV%)
[7] = whole blood, single oral dose 50 mg, n = 4, geometric mean (CV%)
[8] = whole blood, single oral dose 100 mg, n = 4, geometric mean (CV%)
[9] = whole blood, single oral dose 200 mg, n = 4, geometric mean (CV%)

NS(=O)(=O)c1ccc(N2CCCCS2(=O)=O)cc1 [Sultiame]
increase in plasma Cmax for each doubling of dose (between dose levels 50, 100, 200 mg): 10 fold | increase in urinary recovery of unchanged sultiame (between the 50 and 200 mg doses): about 10 fold | half-life (whole blood, oral, noncompartmental, highest observed, read-out: whole blood t1/2): ≤ 312 h | Cmax [1]: 20 ng/mL | AUC [1]: 1.24 µg·h/mL | half-life (plasma, single oral dose 50 mg, n = 4, geometric mean (CV%), read-out: t1/2 (converted)): 50.8 h | Tmax (plasma, single oral dose 50 mg, n = 4): 7 h | Cmax [2]: 180 ng/mL | AUC [2]: 8.57 µg·h/mL | half-life (plasma, single oral dose 100 mg, n = 4, geometric mean (CV%), read-out: t1/2 (converted)): 90.9 h | Tmax (plasma, single oral dose 100 mg, n = 4): 2 h | Cmax [3]: 1880 ng/mL | AUC [3]: 24 µg·h/mL | half-life (plasma, single oral dose 200 mg, n = 4, geometric mean (CV%), read-out: t1/2 (converted)): 40 h | Tmax (plasma, single oral dose 200 mg, n = 4): 1.5 h | CL renal [4]: 2.83 mL/min | CL renal [5]: 2.33 mL/min | CL renal [6]: 2.17 mL/min | Cmax [7]: 7910 ng/mL | AUC [7]: 3320 µg·h/mL | half-life (whole blood, single oral dose 50 mg, n = 4, geometric mean (CV%), read-out: t1/2 (converted)): 313 h | Tmax (whole blood, single oral dose 50 mg, n = 4): 3 h | Cmax [8]: 15900 ng/mL | AUC [8]: 4540 µg·h/mL | half-life (whole blood, single oral dose 100 mg, n = 4, geometric mean (CV%), read-out: t1/2 (converted)): 233 h | Tmax (whole blood, single oral dose 100 mg, n = 4): 5.01 h | Cmax [9]: 17200 ng/mL | AUC [9]: 4530 µg·h/mL | half-life (whole blood, single oral dose 200 mg, n = 4, geometric mean (CV%), read-out: t1/2 (converted)): 253 h | Tmax (whole blood, single oral dose 200 mg, n = 4): 2.5 h | CL/F [1]: 40.4 (93) L/h | V/F [1]: 2964 (21) L | CL/F [2]: 11.7 (25) L/h | V/F [2]: 1529 (21) L | CL/F [3]: 8.3 (26) L/h | V/F [3]: 480 (26) L | Recovery unchanged [4]: 1.61 (17) % | Recovery unchanged [5]: 5.24 (111) % | Recovery unchanged [6]: 16.73 (36) % | CL/F [7]: 0.015 (37) L/h | V/F [7]: 6.8 (21) L | CL/F [8]: 0.008 (34) L/h | V/F [8]: 7.4 (21) L | CL/F [9]: 0.044 (41) L/h | V/F [9]: 16.2 (27) L
